According to patent US20190328857A1, “CALR AND JAK2 VACCINE COMPOSITIONS” (IO Biotech ApS, priority 2016, published 2019):

How the values were obtained:
Assay type in all cases: cell-based, human
[1] = tested on: PBMC from CALR-mutated MPN patients; assay: IFN-γ ELISPOT for spontaneous T-cell responses in PBMC from CALR-mutated MPN patients
Text: The study was approved by the local ethics committee, and all patients signed informed consent, in accordance with the Helsinki Declaration before study participation. We included 31 CALRmut MPN patients with the following diagnoses: ET (n=13), PMF (n=12), post-ET MF (n=4), or prefibrotic MF (n=2). Peripheral blood mononuclear cells (PBMC) were isolated with Lymphoprep and frozen in fetal calf serum with 10% dimethyl sulfoxide. First, we scrutinized PBMC from two MPN patients for the presence of spontaneous T-cell responses against two CALR derived peptides, CALR Long1 ([…], SEQ ID NO: 2) and CALR Long2 ([…], SEQ ID NO: 3) using the highly sensitive and solid interferon gamma (IFN-γ) Enzyme-Linked ImmunoSPOT (ELISPOT) secretion assays (FIGS. 1A and 1C). The ELISPOT has proven to be the central assay in studies focusing on identification on novel tumor antigens by the characterization of novel tumor antigen responses in PBMC from cancer patients. Thus, this assay has previously been utilized for the identification of novel tumor antigens based on spontaneous immunity in cancer patients (Andersen et al., 2005).
(§1) The ELISPOT assay is based on the detection of antigen induced release of cytokines—most often IFN-γ—by single T-cells upon triggering of its T-cell receptor. Reactivity of a single T-cell can be detected and quantified via binding of the respective cytokine on special nitrocellulose filter plates. When a T-cell recognizes the peptide epitope examined, the T-cell releases cytokines that are detected by a colorimetric reaction using an enzyme conjugated to a secondary cytokine specific antibody. The reaction product is visible as a spot. Ideally, each spot represents the cytokines secreted by a single activated cell. ELISPOTs were performed and analyzed as described previously (Munir et al., 2013). PBMCs were tested in different concentrations to ensure an optimal response. The distribution-free resampling method, described by Moodie et al., was used for statistical analyses and a p-value ≤0.05 was deemed a T-cell response (Moodie et al., 2010).
After the promising responses in the first two patients we analyzed PBMC from additional 29 CALR-mutated MPN patients. […] Of the 24 evaluable patients, 10 had ET and 14 had MF; the latter group comprised 11 patients with PMF, 2 with post-ET MF, and 1 with prefibrotic MF. […] Furthermore, we examined PBMC from two patients in a tumor necrosis factor alpha (TNF-α) ELISPOT.

[2] = tested on: PBMC / T-cells from CALRmut MPN patients; assay: Intracellular cytokine staining of patient PBMC and of DC-stimulated T-cell culture; details: PBMC from patient C39
Text: Next, we chose to analyze PBMC from four patients with a response against CALR Long1 and CALR Long2 peptides using intracellular cytokine staining. Although this method is less sensitive than ELISPOT, it allows elucidating which immune cells secrete the cytokine identified in ELISPOT. Hereby, we could determine whether the reacting cells were T-cells and, if so, if the responding cells were CD4 T-cells or CD8 T-cells. In short, cells were stimulated with CALR Long1 or with a scrambled peptide ([…]) as control. For surface markers we employed 4 μl NIR, 10 μl CD4 PerCP, 2 μl CD8 Pacific Blue, and 10 μl CD3 FITC and for intracellular staining we used 2 μl anti-TNF-α and anti IFN-γ antibodies conjugated with either PE-Cy7 or APC. Washing, permeabilization and staining procedures followed previously described methods (Munir, Andersen et al., 2013). […] To confirm that the responses identified indeed were T-cell responses against CALR Long1, we generated dendritic cells from patient C42 using previously described methods. Autologous PBMC were stimulated three times with the dendritic cells, which had been pulsed with CALR Long1, and we hereby generated a CALR Long1 specific T-cell culture. […] The frequent detection of T-cell responses indicate, that the CALR mutations encode highly immunogenic cancer antigens, which represent ideal targets for anti-cancer immune therapy.

PBMC from healthy donors [3] = assay: IFN-γ ELISPOT on PBMC from healthy donors; details: for healthy donors with a significant response in IFN-γ ELISPOT / healthy donors with a significant response in IFN-γ ELISPOT, percentage: of 21 (CALRLong1), 23 (CALRLong2), 9 (CALRLong4), 7 (CALRLong5) analyzed
Text: as §1
PBMC from healthy donors were analyzed by IFN-γ ELISPOTs as described in Example 1 for immune responses against the CARL-mutant epitopes CALRLong1 ([…]), CALRLong2 ([…]), CALRLong4 ([…]) and CALRLong5 ([…]). […]

PBMC from healthy donors [4] = assay: TNF-α ELISPOT on PBMC from healthy donors; details: ten healthy controls analyzed per peptide
Text: Of note, all patients with a TNF-α response against CALRLong1 and CALRLong2 did also display an IFN-g response in ELISPOT (FIGS. 14-15).

[5] = tested on: CALRLong1-specific T-cells; assay: Intracellular cytokine staining of CALRLong1-specific T-cell culture stimulated with peptide; details: after three stimulations with autologous dendritic cells
Protocol: Fresh PBMCs were first enriched for CD14+ cells using MACS CD14 MicroBeads (Miltenyi Biotech GmbH, Bergisch Gladbach, Germany). This was considered day 0. The resulting monocyte-depleted cell culture was termed peripheral blood lymphocytes (PBL). The enriched cells were cultured using CellGro (CellGenix GmbH, Freiburg, Germany), and stimulated with GM-CSF (1000 U/ml) and IL-4 (250 U/ml) (both PeproTech, Rocky Hill, N.J., USA). The next day, to generate fast dendritic cells (fastDC), we treated half of the enriched cells with a maturation cocktail comprising IFN-γ (1000 U/ml) (PeproTech, Rocky Hill, N.J., USA), PolyI:C (20 μg/ml) (Sigma-Aldrich, St. Louis, Mo., USA) and CALRLong1 peptide. PBL were cultured overnight in X-VIVO medium (Lonza Group Ltd., Basel, Switzerland) and then stimulated with half of the fastDC. The other half of the fastDC were frozen for later use.
The other half of the enriched cells were cultured until day 7, at which time these cells were treated with the same maturation cocktail as above, to generate mature dendritic cells (mDC). The next day, these mDC were used to stimulate PBLs. On day 9, IL-2 (120 U/mL) (Novartis, Basel, Switzerland) and IL-7 (40 U/ml) (PeproTech, Rocky Hill, N.J., USA) was added. On day 14, we thawed the fastDC that had been frozen on day 2, and used these cells to stimulate the PBL. On day 16 and day 24 we added, IL-2 and IL-7 in the concentrations mentioned above.
At day 38 of the T-cell culture, we stimulated the T-cells with CALRLong1 peptide for 4 h and next isolated IFN-γ secreting cells using the MACS IFN-γ secretion assay. The isolated cells were expanded using a rapid expansion protocol. The vast majority of cells that reacted to CALRLong1 peptide stimulation were CD4^+ T-cells; thus, we isolated CD4^+ T cells from the REP culture using the EasySep Human CD4 isolation Kit (StemCell Technologies, Inc., Vancouver, BC, Canada). The enriched CD4^+ T-cells were then cloned by limiting dilution, and growing T-cell clones were rapidly expanded using feeder cells and high dose IL-2 (6000 u/ml). T-cell receptor clonotyping of the cloned cells was performed by denaturing gradient gel electrophoresis as previously described.
Frozen T-cells were thawed one day prior to assaying, and in experiments examining CD107a expression, a CD107a-PE antibody was added to cells directly after addition of peptide or target cells. After one hour of stimulation, protein-transport inhibitor Brefeldin A (BD Biosciences, San Jose, Calif., USA) was added to the cells which were then stimulated for four h. Cells were stained with CD3-APC-H7, CD4-FITC, CD8-PerCP, IFN-γ-APC, TNF-α-BV421 and Fixable Viability Stain 510 (BD Biosciences, San Jose, Calif., USA), permeabilized and washed with Permeabilization Reagent/Diluent and fixation-permeabilization buffer (AH Diagnostics, Aarhus, Denmark). Cells were acquired with a FACS Canto II (BD Biosciences) and analyzed using FACSDiva software. All effector cell stimulations were run in triplicate wells if not otherwise specified.

[6] = tested on: PBMCs from the CALRmut donor; assay: Spontaneous ex-vivo ELISPOT, 48 hour assay; details: high background, rules of Moodie et al.
Protocol: We established a CALRLong1-specific T-cell culture from a CALRmut patient with a strong […] T-cell response against CALRLong1 peptide. PBL were stimulated three times with autologous dendritic cells, and T-cells were analyzed using intracellular cytokine staining (ICS). […] However, CD4^+ T cells responded to CALRLong1 (FIG. 7). […] Since CALRLong4 peptide comprises the shared 36 amino acid C-terminus found in all CALRmut patients, we tested PBMCs from the donor for a spontaneous ex-vivo ELISPOT response in a 48 hour assay.

| Sequence | patients that responded in IFN-γ ELISPOT, percentage ([1]; 18 evaluable patients for CALR Long1, 24 for CALR Long2) | patients that responded in IFN-γ ELISPOT ([1]; 18 evaluable patients for CALR Long1, 24 for CALR Long2, p-value ≤0.05 deemed a T-cell response) | response confirmed in additional ELISPOT ([1]; samples from 5 of the responding patients retested) | type of T-cell response, intracellular cytokine staining [2] | immune responses of healthy donors in IFN-γ ELISPOT (PBMC from healthy donors [3]) | healthy donors with a significant response in IFN-γ ELISPOT (PBMC from healthy donors [3]) | healthy donors with a significant response in IFN-γ ELISPOT, percentage (PBMC from healthy donors [3]) | healthy controls with a significant TNF-α response (PBMC from healthy donors [4]) | response of CD4^+ T cells of the CALRLong1 bulk culture to peptide stimulation [5] | spontaneous ex-vivo ELISPOT response [6] |
| --- | --- | --- | --- | --- | --- | --- | --- | --- | --- | --- |
| TRRKMRRKMSPARPRTSCREACLQGWTEA (listed as Homo sapiens) [CALRLong2] | 42% | 10 patients | 4 patients | CD4 T-cell response | strong immune responses | 18 | 78% | Five | did not respond |  |
| RRMRRTRRKMRRKMSPARPRTSCREACLQGWTEA (listed as Homo sapiens) [CALRLong4] |  |  |  |  | strong immune responses | 9 | 100% |  | reacted | significant response |
